Source: ChEMBL document CHEMBL1125151, “Aldosterone antagonists. 3. Synthesis and activities of steroidal 7 alpha-(alkoxycarbonyl)-15,16-methylene spirolactones” (1990)

Experiments:
[1] = biological target: T1, Androgen receptor (Rattus norvegicus) (UniProt P15207); assay: Binding to rat prostate Androgen receptor compared to dihydrotestosterone; settings: Prostate gland
T1 sequence (whole entry): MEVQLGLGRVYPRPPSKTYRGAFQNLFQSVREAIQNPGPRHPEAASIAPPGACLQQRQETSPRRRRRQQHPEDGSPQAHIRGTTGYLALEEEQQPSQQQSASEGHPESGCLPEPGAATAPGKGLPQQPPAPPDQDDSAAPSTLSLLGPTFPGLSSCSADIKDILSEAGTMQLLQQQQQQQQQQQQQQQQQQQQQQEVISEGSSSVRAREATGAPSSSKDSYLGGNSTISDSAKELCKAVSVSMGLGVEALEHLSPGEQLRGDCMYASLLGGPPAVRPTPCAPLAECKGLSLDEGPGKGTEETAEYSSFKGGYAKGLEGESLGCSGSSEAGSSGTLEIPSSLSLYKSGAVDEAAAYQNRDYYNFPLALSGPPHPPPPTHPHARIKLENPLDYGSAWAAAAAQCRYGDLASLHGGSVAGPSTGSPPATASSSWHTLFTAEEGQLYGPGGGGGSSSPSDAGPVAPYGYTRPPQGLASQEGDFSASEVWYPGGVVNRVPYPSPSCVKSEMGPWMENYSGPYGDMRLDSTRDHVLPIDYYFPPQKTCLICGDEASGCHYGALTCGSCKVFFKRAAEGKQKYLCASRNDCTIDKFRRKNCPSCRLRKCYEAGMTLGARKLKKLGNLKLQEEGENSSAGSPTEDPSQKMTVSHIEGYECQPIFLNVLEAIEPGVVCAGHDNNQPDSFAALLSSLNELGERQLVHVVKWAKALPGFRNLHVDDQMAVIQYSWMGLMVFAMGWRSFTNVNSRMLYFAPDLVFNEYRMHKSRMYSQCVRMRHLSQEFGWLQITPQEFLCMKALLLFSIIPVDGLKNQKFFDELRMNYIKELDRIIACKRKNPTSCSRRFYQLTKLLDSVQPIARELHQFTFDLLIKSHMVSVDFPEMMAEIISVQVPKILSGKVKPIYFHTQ

[2] = biological target: T2, Progesterone receptor (Oryctolagus cuniculus) (UniProt P06186); assay: Binding to rabbit uterine progesterone receptor compared to progesterone
T2 sequence (whole entry): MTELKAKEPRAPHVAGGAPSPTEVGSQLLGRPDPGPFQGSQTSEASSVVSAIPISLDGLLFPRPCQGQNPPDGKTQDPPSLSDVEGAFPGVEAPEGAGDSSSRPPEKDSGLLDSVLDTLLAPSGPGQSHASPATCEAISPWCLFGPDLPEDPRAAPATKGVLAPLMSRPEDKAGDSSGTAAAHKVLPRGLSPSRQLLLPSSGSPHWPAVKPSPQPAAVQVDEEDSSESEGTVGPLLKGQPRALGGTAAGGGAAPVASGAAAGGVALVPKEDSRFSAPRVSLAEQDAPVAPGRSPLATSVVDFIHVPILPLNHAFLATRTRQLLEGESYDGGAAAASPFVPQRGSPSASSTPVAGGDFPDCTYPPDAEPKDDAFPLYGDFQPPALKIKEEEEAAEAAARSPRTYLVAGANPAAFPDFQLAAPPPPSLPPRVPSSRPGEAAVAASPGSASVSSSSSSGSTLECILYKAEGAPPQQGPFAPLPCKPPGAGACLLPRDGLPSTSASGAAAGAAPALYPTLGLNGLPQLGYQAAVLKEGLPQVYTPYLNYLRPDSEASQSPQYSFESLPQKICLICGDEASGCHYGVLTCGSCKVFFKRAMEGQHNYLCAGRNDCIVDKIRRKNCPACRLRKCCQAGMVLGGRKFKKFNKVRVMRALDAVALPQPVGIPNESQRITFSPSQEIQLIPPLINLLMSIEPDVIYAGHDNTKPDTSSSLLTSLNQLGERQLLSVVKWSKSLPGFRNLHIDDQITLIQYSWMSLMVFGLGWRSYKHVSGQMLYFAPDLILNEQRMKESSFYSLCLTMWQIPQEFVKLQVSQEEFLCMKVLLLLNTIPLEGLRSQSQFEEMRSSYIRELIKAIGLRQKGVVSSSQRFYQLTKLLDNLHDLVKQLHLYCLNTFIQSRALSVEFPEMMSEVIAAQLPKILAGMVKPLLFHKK

[3] = biological target: T3, Mineralocorticoid receptor (Rattus norvegicus) (UniProt P22199); assay: Anti-aldosterone effect on the urinary Na/K ratio in Wistar rats compared to spironolactone; format: functional; settings: Urine
T3 sequence (whole entry): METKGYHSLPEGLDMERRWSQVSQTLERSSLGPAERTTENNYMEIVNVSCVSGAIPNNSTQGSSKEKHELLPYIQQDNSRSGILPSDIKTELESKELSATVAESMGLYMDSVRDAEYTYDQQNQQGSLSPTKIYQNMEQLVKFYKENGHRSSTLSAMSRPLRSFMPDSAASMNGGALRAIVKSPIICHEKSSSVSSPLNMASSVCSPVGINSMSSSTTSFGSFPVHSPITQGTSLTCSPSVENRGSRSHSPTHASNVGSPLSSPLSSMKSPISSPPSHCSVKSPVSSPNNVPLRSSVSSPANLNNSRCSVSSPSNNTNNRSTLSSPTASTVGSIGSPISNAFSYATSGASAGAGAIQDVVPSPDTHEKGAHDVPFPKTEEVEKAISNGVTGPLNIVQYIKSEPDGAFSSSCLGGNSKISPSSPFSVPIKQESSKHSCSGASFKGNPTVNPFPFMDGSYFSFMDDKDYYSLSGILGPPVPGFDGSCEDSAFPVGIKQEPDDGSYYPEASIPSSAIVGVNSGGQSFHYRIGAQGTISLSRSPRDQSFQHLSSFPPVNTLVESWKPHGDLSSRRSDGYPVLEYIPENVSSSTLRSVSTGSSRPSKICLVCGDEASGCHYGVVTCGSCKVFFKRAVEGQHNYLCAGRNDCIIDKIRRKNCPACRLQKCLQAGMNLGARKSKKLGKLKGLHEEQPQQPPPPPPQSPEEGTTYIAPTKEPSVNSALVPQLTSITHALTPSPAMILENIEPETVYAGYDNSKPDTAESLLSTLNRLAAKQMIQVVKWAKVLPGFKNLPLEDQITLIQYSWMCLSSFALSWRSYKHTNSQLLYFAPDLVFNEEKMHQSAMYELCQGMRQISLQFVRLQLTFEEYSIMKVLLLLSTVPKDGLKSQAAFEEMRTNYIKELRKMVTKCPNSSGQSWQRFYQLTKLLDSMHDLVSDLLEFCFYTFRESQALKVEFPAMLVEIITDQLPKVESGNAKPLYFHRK

[4] = biological target: T2, Progesterone receptor (Oryctolagus cuniculus); assay: Progestational activity on oral administration (100 mg) in rabbit; format: functional, organism-based
[5] = biological target: T2, Progesterone receptor (Oryctolagus cuniculus); assay: Progestational activity on oral administration (300 mg) in rabbit; format: functional, organism-based
[6] = biological target: T2, Progesterone receptor (Oryctolagus cuniculus); assay: Progestational activity on oral administration (30 mg) in rabbit; format: functional, organism-based
[7] = biological target: T1, Androgen receptor (Rattus norvegicus); assay: Anogenital distance in rats after 50 mg/animal oral dose in Fetal Feminization test (control = 2.30+/-0.16); format: functional
Rattus norvegicus [8] = assay: Ovulation inhibitory activity in rats after 100 mg oral dose; format: functional
Rattus norvegicus [9] = assay: Ovulation inhibitory activity in rats after 30 mg oral dose; format: functional
[10] = biological target: T1, Androgen receptor (Rattus norvegicus); assay: Weight of seminal vesicle as anti-androgenic activity in rat after oral dose of 24+0.1 mg/day with testosterone propionate(0.1 mg/day); format: functional
[11] = biological target: T1, Androgen receptor (Rattus norvegicus); assay: Weight of prostate as anti-androgenic activity in rat after oral dose of 12+0.1 mg/day with testosterone propionate(0.1 mg/day); format: functional; settings: Prostate gland
[12] = biological target: T1, Androgen receptor (Rattus norvegicus); assay: Weight of prostate as anti-androgenic activity in rat after oral dose of 24+0.1 mg/day with testosterone propionate(0.1 mg/day); format: functional; settings: Prostate gland
[13] = biological target: T1, Androgen receptor (Rattus norvegicus); assay: Weight of seminal vesicle as anti-androgenic activity in rat after oral dose of 12+0.1 mg/day with testosterone propionate(0.1 mg/day); format: functional
[14] = biological target: T1, Androgen receptor (Rattus norvegicus); settings: Prostate gland
Description: Weight of prostate as anti-androgenic activity in rat after oral dose of 48+0.1 mg/day with testosterone propionate(0.1 mg/day)

[15] = biological target: T1, Androgen receptor (Rattus norvegicus); settings: Prostate gland; remark: listed apart in the source
Description: Weight of prostate as anti-androgenic activity in rat after oral dose of 96+0.1 mg/day with testosterone propionate(0.1 mg/day)

[16] = biological target: T1, Androgen receptor (Rattus norvegicus); settings: Seminal vesicle
Description: Weight of seminal vesicle as anti-androgenic activity in rat after oral dose of 48+0.1 mg/day with testosterone propionate(0.1 mg/day)

[17] = biological target: T1, Androgen receptor (Rattus norvegicus); settings: Seminal vesicle; remark: listed apart in the source
Description: Weight of seminal vesicle as anti-androgenic activity in rat after oral dose of 96+0.1 mg/day with testosterone propionate(0.1 mg/day)

SMILES	Competition factor [1]	Competition factor [2]	Relative potency [3]	also measured
CC(C)OC(=O)[C@@H]1CC2=CC(=O)C=CC2(C)C2CCC3(C)C(C21)[C@@H]1C[C@@H]1C31CCC(=O)O1 (stereo partly specified)	266	113	< 50	
COC(=O)[C@@H]1CC2=CC(=O)[C@@H]3C[C@@H]3C2(C)C2CCC3(C)C(C21)[C@H]1C[C@H]1C31CCC(=O)O1 (stereo partly specified)	53	98	140	
COC(=O)[C@@H]1CC2=CC(=O)C=CC2(C)C2CCC3(C)C(C21)[C@@H]1C[C@@H]1C31CCC(=O)O1 (stereo partly specified)			< 50	
COC(=O)[C@@H]1CC2=CC(=O)CCC2(C)C2CCC3(C)C(CCC34CCC(=O)O4)C21 (stereo partly specified)	142	130	104	
CCOC(=O)[C@@H]1CC2=CC(=O)[C@@H]3C[C@@H]3C2(C)C2CCC3(C)C(C21)[C@@H]1C[C@@H]1C31CCC(=O)O1 (stereo partly specified)	28	34	187	
CCOC(=O)[C@@H]1CC2=CC(=O)C=CC2(C)C2CCC3(C)C(C21)[C@@H]1C[C@@H]1C31CCC(=O)O1 (stereo partly specified)		85	< 50	
COC(=O)[C@@H]1CC2=CC(=O)CCC2(C)C2CCC3(C)C(C21)[C@@H]1C[C@@H]1C31CCC(=O)O1 (stereo partly specified)	112	25	217	McPhail index [4]: 1.8; McPhail index [5]: 1.8; McPhail index [6]: 1.4; Anogenital distance [7]: 2 mm; Inhibition (Rattus norvegicus [8]): 0%; Inhibition (Rattus norvegicus [9]): 0%; Organ weight [10]: 37 mg; Organ weight [11]: 38 mg; Organ weight [12]: 33 mg; Organ weight [13]: 44 mg; Organ weight [14]: 41 mg; Organ weight [15]: 30 mg; Organ weight [16]: 47 mg; Organ weight [17]: 42 mg
CCCOC(=O)[C@@H]1CC2=CC(=O)[C@@H]3C[C@@H]3C2(C)C2CCC3(C)C(C21)[C@@H]1C[C@@H]1C31CCC(=O)O1 (stereo partly specified)	33	19	39	
CCOC(=O)[C@@H]1CC2=CC(=O)CCC2(C)C2CCC3(C)C(C21)[C@@H]1C[C@@H]1C31CCC(=O)O1 (stereo partly specified)	98	33	< 50	
CC(C)OC(=O)[C@@H]1CC2=CC(=O)[C@@H]3C[C@@H]3C2(C)C2CCC3(C)C(C21)[C@@H]1C[C@@H]1C31CCC(=O)O1 (stereo partly specified)	40	19	140	
CC(C)OC(=O)[C@@H]1CC2=CC(=O)CCC2(C)C2CCC3(C)C(C21)[C@@H]1C[C@@H]1C31CCC(=O)O1 (stereo partly specified)	67	12	< 50	
CC(=O)S[C@@H]1CC2=CC(=O)CC[C@]2(C)[C@H]2CC[C@@]3(C)[C@@H](CC[C@@]34CCC(=O)O4)[C@H]12 [SPIRONOLACTONE]				Inhibition (Rattus norvegicus [8]): 100%
COC(=O)[C@@H]1CC2=CC(=O)CCC2(C)C2CCC3(C)C(C21)[C@H]1C[C@H]1C31CCC(=O)O1 (stereo partly specified)	121	10	50	
COC(=O)[C@@H]1CC2=CC(=O)[C@@H]3C[C@@H]3C2(C)C2CCC3(C)C(C21)[C@@H]1C[C@@H]1C31CCC(=O)O1 (stereo partly specified)	29	92	140	
